Measured values as given in patent US20130196964A1, “HETEROCYCLICALLY SUBSTITUTED ARYL COMPOUNDS AS HIF INHIBITORS” (BAYER SCHERING PHARMA AKTIENGESELLSCHAFT, priority 2008, published 2013).
Where a name gives a salt, the structure may show the parent alone.

system: HCT 116 cells transfected with a luciferase reporter under the control of an HIF-responsive sequence; assay: HIF-luciferase assay; format: cell-based; conditions: Homo sapiens; HCT 116 HIF-luciferase reporter cells, hypoxia chamber (1% O2), 24 h, luminescence
Protocol: HCT 116 cells were transfected in a stable manner with a plasmid which contained a luciferase reporter under the control of an HIF-responsive sequence. These cells were sown in microtitre plates [20,000 cells/cavity in RPMI 1640 medium with 10% foetal calf serum (FCS) and 100 μg/ml of hygromycin]. Incubation was carried out overnight under standard conditions (5% CO2, 21% O2, 37° C., moistened). The following morning the cells were incubated with various concentrations of the test substances (0-10 μmol/l) in a hypoxia chamber (1% O2). After 24 h, Bright Glo reagent (Promega, Wis., USA) was added in accordance with the manufacturer'/s instructions, and after 5 min the luminescence was measured. Cells which were incubated under normoxia served as background controls.

Row | IC50 [nM] | SMILES
1 | 3 | Cc1cc(-c2nc(-c3ccc(C4(C(F)(F)F)CC4)cc3)no2)nn1Cc1cccc(C(=O)N2CCN(C)CC2)c1 [Example 137, (4-Methylpiperazin-1-yl)(3-{[5-methyl-3-(3-{4-[1-(trifluoromethyl)cyclopropyl]phenyl}-1,2,4-oxadiazol-5-yl)-1H-pyrazol-1-yl]methyl}phenyl)methanone]
2 | 0.5 | Cc1cc(-c2nc(-c3ccc(C(C)(C)C)cc3)no2)nn1Cc1ccnc(N2CCN(CC(F)(F)F)CC2)c1 [Example 78, 1-[4-({3-[3-(4-tert-Butylphenyl)-1,2,4-oxadiazol-5-yl]-5-methyl-1H-pyrazol-1-yl}methyl)pyridin-2-yl]-4-(2,2,2-trifluoroethyl)piperazine]
3 | 2 | Cc1cc(-c2nc(-c3ccc(OC(F)(F)F)cc3)no2)nn1Cc1ccnc(N2CCC(C#N)CC2)c1 [Example 85, 1-{4-[(5-Methyl-3-{3-[4-(trifluoromethoxy)phenyl]-1,2,4-oxadiazol-5-yl}-1H-pyrazol-1-yl)-methyl]pyridin-2-yl}piperidine-4-carbonitrile]
4 | 0.8 | Cc1cc(-c2nc(-c3ccc(OC(F)(F)F)c(F)c3)no2)nn1Cc1ccnc(N2CCN(C3CC3)CC2)c1 [Example 93, 1-Cyclopropyl-4-{4-[(3-{3-[3-fluoro-4-(trifluoromethoxy)phenyl]-1,2,4-oxadiazol-5-yl}-5-methyl-1H-pyrazol-1-yl)methyl]pyridin-2-yl}piperazine]
5 | 6 | Cc1cc(-c2nc(-c3ccc(S(=O)(=O)C(F)(F)F)cc3)no2)nn1Cc1cccc(C(=O)N2CCN(C)CC2)c1 [Example 41]
6 | 1 | Cc1cc(-c2nc(-c3ccc(OC(F)(F)F)cc3)no2)nn1Cc1ccnc(N2CCN(CC(F)(F)F)CC2)c1 [Example 72, 1-{4-[(5-Methyl-3-{3-[4-(trifluoromethoxy)phenyl]-1,2,4-oxadiazol-5-yl}-1H-pyrazol-1-yl)-methyl]pyridin-2-yl}-4-(2,2,2-trifluoroethyl)piperazine]
7 | 4 | Cc1cc(-c2nc(-c3ccc(OC(F)(F)F)cc3)no2)nn1Cc1ccnc(N2CCN(C)C(=O)C2)c1 [Example 86, 1-Methyl-4-{4-[(5-methyl-3-{3-[4-(trifluoromethoxy)phenyl]-1,2,4-oxadiazol-5-yl}-1H-pyrazol-1-yl)methyl]pyridin-2-yl}piperazin-2-one]
8 | 10 | Cc1cc(-c2nc(-c3ccc(OC(F)(F)F)cc3)no2)nn1Cc1ccnc(N2CCN(C(C)C)CC2)c1 [Example 21]
9 | 3 | Cc1cc(-c2nc(-c3ccc(OC(F)(F)F)cc3)no2)cn1Cc1cccc(C(=O)N2CCN(C)CC2)c1 [Example 52]
10 | 0.6 | Cc1cc(-c2nc(-c3ccc(C4(C(F)(F)F)CC4)cc3)no2)nn1Cc1ccnc(N2CCN(C3CC3)CC2)c1 [Example 91, 1-Cyclopropyl-4-(4-{[5-methyl-3-(3-{4-[1-(trifluoromethyl)cyclopropyl]phenyl}-1,2,4-oxadiazol-5-yl)-1H-pyrazol-1-yl]methyl}pyridin-2-yl)piperazine]
11 | 1 | Cc1cc(-c2nc(-c3ccc(C(C)(C)C)cc3)no2)nn1Cc1ccnc(N2CCN(C3CC3)CC2)c1 [Example 75, 1-[4-({3-[3-(4-tert-Butylphenyl)-1,2,4-oxadiazol-5-yl]-5-methyl-1H-pyrazol-1-yl}methyl)pyridin-2-yl]-4-cyclopropylpiperazine]
12 | 20 | Cc1cc(-c2nc(-c3cccc(OC(F)(F)F)c3)no2)nn1Cc1cccc(C(=O)N2CCN(C)CC2)c1 [Example 119, (4-Methylpiperazin-1-yl) {3-[(5-methyl-3-{3-[3-(trifluoromethoxy)phenyl]-1,2,4-oxadiazol-5-yl}-1H-pyrazol-1-yl)methyl]phenyl}methanone hydrochloride]
13 | 2 | Cc1cc(-c2nc(-c3ccc(OC(F)(F)F)cc3)no2)nn1Cc1cccc(C(=O)N2CCN(C3CC3)CC2)c1 [Example 35]
14 | 1 | COCC1(c2ccc(-c3noc(-c4cc(C)n(Cc5ccnc(N6CCN(C7CC7)CC6)c5)n4)n3)cc2)CCC1 [Example 77, 1-Cyclopropyl-4-(4-{[3-(3-{4-[1-(methoxymethyl)cyclobutyl]phenyl}-1,2,4-oxadiazol-5-yl)-5-methyl-1H-pyrazol-1-yl]methyl}pyridin-2-yl)piperazine]
15 | 4 | Cc1cc(-c2nc(-c3ccc(OC(F)(F)F)cc3)no2)nn1Cc1ccnc(N2CCC(N(C)C)CC2)c1 [Example 16, N,N-Dimethyl-1-{4-[(5-methyl-3-{3-[4-(trifluoromethoxy)phenyl]-1,2,4-oxadiazol-5-yl}-1H-pyrazol-1-yl)methyl]pyridin-2-yl}piperidin-4-amine]
16 | 2.5 | Cc1cc(-c2nc(-c3ccc(OC(F)(F)F)cc3)no2)nn1Cc1cccc(C(=O)N2CCCO2)c1 [Example 100, {3-[(5-Methyl-3-{3-[4-(trifluoromethoxy)phenyl]-1,2,4-oxadiazol-5-yl}-1H-pyrazol-1-yl)methyl]-phenyl}(1,2-oxazolidin-2-yl)methanone]
17 | 5 | Cc1cc(-c2nc(-c3ccc(OC(F)(F)F)cc3)no2)nn1Cc1ccnc(N2CC(N(C)C)C2)c1 [Example 18]
18 | 10 | Cc1cc(-c2nc(-c3ccc(C4(F)CCOCC4)cc3)no2)nn1Cc1cccc(C(=O)N2CCN(C)CC2)c1 [Example 45]
19 | 4 | Cc1cc(-c2nc(-c3ccc(C(C)(C)C(F)(F)F)cc3)no2)nn1Cc1cccc(S(=O)(=O)N2CCC(O)CC2)c1 [Example 140, 1-({3-[(5-Methyl-3-{3-[4-(1,1,1-trifluoro-2-methylpropan-2-yl)phenyl]-1,2,4-oxadiazol-5-yl}-1H-pyrazol-1-yl)methyl]phenyl}sulfonyl)piperidin-4-ol]
20 | 1 | Cc1cc(-c2nc(-c3ccc(C4CCOCC4)cc3)no2)nn1Cc1ccnc(N2CCN(C3CC3)CC2)c1 [Example 71, 1-Cyclopropyl-4-{4-[(5-methyl-3-{3-[4-(tetrahydro-2H-pyran-4-yl)phenyl]-1,2,4-oxadiazol-5-yl}-1H-pyrazol-1-yl)methyl]pyridin-2-yl}piperazine]
21 | 3 | COC1CCN(c2cc(Cn3nc(-c4nc(-c5ccc(OC(F)(F)F)cc5)no4)cc3C)ccn2)CC1 [Example 150, 2-(4-Methoxypiperidin-1-yl)-4-[(5-methyl-3-{3-[4-(trifluoromethoxy)phenyl]-1,2,4-oxadiazol-5-yl}-1H-pyrazol-1-yl)methyl]pyridine]
22 | 0.6 | Cc1cc(-c2nc(-c3ccc(OC(F)(F)F)cc3)no2)nn1Cc1ccnc(N2CCN(C3CC3)CC2)c1 [Example 65, 1-Cyclopropyl-4-{4-[(5-methyl-3-{3-[4-(trifluoromethoxy)phenyl]-1,2,4-oxadiazol-5-yl}-1H-pyrazol-1-yl)methyl]pyridin-2-yl}piperazine]
